Assay results as given in ChEMBL document CHEMBL3745645, “Synthesis, in vitro antitumor activity, dihydrofolate reductase inhibition, DNA intercalation and structure-activity relationship studies of 1,3,5-triazine analogues” (Bioorg Med Chem Lett, 2016).
Activity calls are given as the source filed them. The calls are words filed in the database; no cut-off is given here.

What was measured:
[1] = system: HOP-62; assay: Cytotoxicity against human HOP62 cells at 10 uM after 48 hrs by SRB assay; format: functional
[2] = system: CAKI-1; assay: Cytotoxicity against human Caki1 cells at 10 uM after 48 hrs by SRB assay; format: functional
[3] = system: HCT-116; assay: Cytotoxicity against human HCT116 cells at 10 uM after 48 hrs by SRB assay; format: functional
[4] = system: OVCAR-3; assay: Cytotoxicity against human OVCAR3 cells at 10 uM after 48 hrs by SRB assay; format: functional
[5] = system: SF-268; assay: Cytotoxicity against human SF268 cells at 10 uM after 48 hrs by SRB assay; format: functional
[6] = system: UO-31; assay: Cytotoxicity against human UO31 cells at 10 uM after 48 hrs by SRB assay; format: functional
[7] = system: COLO 205; assay: Cytotoxicity against human COLO205 cells at 10 uM after 48 hrs by SRB assay; format: functional
[8] = system: HOP-92; assay: Cytotoxicity against human HOP92 cells at 10 uM after 48 hrs by SRB assay; format: functional
[9] = system: IGROV-1; assay: Cytotoxicity against human IGROV1 cells at 10 uM after 48 hrs by SRB assay; format: functional
[10] = system: OVCAR-8; assay: Cytotoxicity against human OVCAR8 cells at 10 uM after 48 hrs by SRB assay; format: functional
[11] = system: SK-OV-3; assay: Cytotoxicity against human SKOV3 cells at 10 uM after 48 hrs by SRB assay; format: functional
[12] = system: DU-145; assay: Cytotoxicity against human DU145 cells at 10 uM after 48 hrs by SRB assay; format: functional
[13] = system: SW-620; assay: Cytotoxicity against human SW620 cells at 10 uM after 48 hrs by SRB assay; format: functional
[14] = system: NCI/ADR-RES; assay: Cytotoxicity against human NCI-ADR-RES cells at 10 uM after 48 hrs by SRB assay; format: functional
[15] = system: SF-539; assay: Cytotoxicity against human SF539 cells at 10 uM after 48 hrs by SRB assay; format: functional
[16] = system: Hs-578T; assay: Cytotoxicity against human Hs 578T cells at 10 uM after 48 hrs by SRB assay; format: functional
[17] = Cytotoxicity against human HL-60(TB) cells at 10 uM after 48 hrs by SRB assay; format: functional; details: HL-60, 48 h, read-out: GI
[18] = system: Calf thymus DNA; assay: Binding affinity to calf thymus DNA at 25 uM by UV-vis spectrometric analysis; format: nucleic-acid assay; details: Bos taurus

Cc1nc2cc(Nc3nc(Nc4ccc(F)cc4)nc(N4CCCC4)n3)ccc2n1Cc1ccccc1
growth inhibition (GI) [1]: Active
growth inhibition (GI) [2]: Active
growth inhibition (GI) [3]: Active
growth inhibition (GI) [4]: Active
growth inhibition (GI) [5]: Active
growth inhibition (GI) [6]: Active
growth inhibition (GI) [7]: Active
growth inhibition (GI) [8]: Active
growth inhibition (GI) [9]: Active
growth inhibition (GI) [10]: Active
growth inhibition (GI) [11]: Active
growth inhibition (GI) [12]: Active
growth inhibition (GI) [13]: Active
growth inhibition (GI) [14]: Active
growth inhibition (GI) [15]: Active

Cc1nc2cc(Nc3nc(Nc4ccc(F)cc4)nc(N4CCN(C)CC4)n3)ccc2n1Cc1ccccc1
growth inhibition (GI) [3]: Active
growth inhibition (GI) [4]: Active
growth inhibition (GI) [6]: Active
growth inhibition (GI) [16]: Active
growth inhibition (GI) [7]: Active
growth inhibition (GI) [15]: Active

Cc1nc2cc(Nc3nc(Nc4ccc(F)cc4)nc(-c4cccs4)n3)ccc2n1Cc1ccccc1
inhibition of growth at 10 µM [17]: 71.9%

Cc1nc2ccc(Nc3nc(NCCN4CCOCC4)nc(Nc4ccc(F)cc4)n3)cc2n1Cc1ccccc1
Activity [18]: Active
